Assay results as given in ChEMBL document CHEMBL5550141, “Photo-regulated PROTACs: A novel tool for temporal control of targeted protein degradation” (Bioorg Med Chem Lett, 2024).
Activity calls are given as the source filed them. The calls are words filed in the database; no cut-off is given here.

Assays:
[1] = target: T1, Protein cereblon/Bromodomain-containing protein 4 (Homo sapiens) (UniProt O60885+Q96SW2); assay: PROTAC activity at CRBN/BRD4 in human MCF7 cells assessed as induction of BRD4 degradation measured after 6 to 24 hrs by Western blot analysis; assay type: cell-based; conditions: dose <= 1.0 µM, time 6-24 hrs
[2] = target: T1, Protein cereblon/Bromodomain-containing protein 4 (Homo sapiens); assay: PROTAC activity at CRBN/BRD4 in human MCF7 cells assessed as induction of BRD4 degradation at 1 uM measured after 18 hrs in presence of […] by Western blot analysis; assay type: cell-based
[3] = target: T1, Protein cereblon/Bromodomain-containing protein 4 (Homo sapiens); assay: PROTAC activity at CRBN/BRD4 in human MCF7 cells assessed as induction of BRD4 degradation at 1 uM measured after 24 hrs by Western blot analysis; assay type: cell-based
[4] = target: T1, Protein cereblon/Bromodomain-containing protein 4 (Homo sapiens); assay: PROTAC activity at CRBN/BRD4 in human MCF7 cells assessed as induction of BRD4 degradation at 1 uM measured after 24 hrs by Western blot analysis relative to control; assay type: cell-based
[5] = target: T1, Protein cereblon/Bromodomain-containing protein 4 (Homo sapiens); assay: PROTAC activity at CRBN/BRD4 in human MCF7 cells assessed as induction of BRD4 degradation at 1 uM measured after 18 hrs in presence of MG132 by Western blot analysis; assay type: cell-based
[6] = target: T1, Protein cereblon/Bromodomain-containing protein 4 (Homo sapiens); assay: PROTAC activity at CRBN/BRD4 in human MCF7 cells assessed as induction of BRD4 degradation at 1 uM measured after 18 hrs in presence of MLN4924 by Western blot analysis; assay type: cell-based
[7] = Stability of the compound assessed as UV-light induced degradation measured after 30 mins by HPLC analysis; assay type: physicochemical; conditions: 0.5 h
[8] = target: T1, Protein cereblon/Bromodomain-containing protein 4 (Homo sapiens); assay: PROTAC activity at CRBN/BRD4 in human MCF7 cells assessed as induction of BRD4 degradation at 1 uM measured after 6 to 24 hrs by Western blot analysis relative to control; assay type: cell-based; conditions: time 6-24 hrs

T1 sequence (Q96SW2 whole entry, looked up, other chains not shown): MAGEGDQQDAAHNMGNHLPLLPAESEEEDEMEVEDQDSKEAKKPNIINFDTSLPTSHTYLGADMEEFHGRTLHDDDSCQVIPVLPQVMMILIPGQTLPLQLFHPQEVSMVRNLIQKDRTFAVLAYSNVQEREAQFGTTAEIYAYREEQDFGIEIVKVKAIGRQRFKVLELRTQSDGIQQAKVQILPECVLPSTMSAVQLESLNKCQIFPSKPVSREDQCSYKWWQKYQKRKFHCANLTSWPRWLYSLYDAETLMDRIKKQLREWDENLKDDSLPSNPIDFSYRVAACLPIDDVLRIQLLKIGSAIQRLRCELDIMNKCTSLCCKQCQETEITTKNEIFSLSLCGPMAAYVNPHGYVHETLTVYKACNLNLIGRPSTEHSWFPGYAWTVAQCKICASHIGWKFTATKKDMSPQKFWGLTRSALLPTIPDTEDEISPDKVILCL

Activity [1] | Activity [2] | Activity [3] | Activity [4] | Activity [5] | Activity [6] | Stability [7] | Activity [8] | SMILES
Dose-Dependent Effect | inactive | Active | > 80% | inactive | inactive | – | – | Cc1sc2c(c1C)C(c1ccc(Cl)cc1)=N[C@@H](CC(=O)NCCNC(=O)OCc1cc(OCCCNc3cccc4c3C(=O)N(C3CCC(=O)NC3=O)C4=O)ccc1[N+](=O)[O-])c1nnc(C)n1-2 (some centres undefined)
Dose-Dependent Effect | inactive | Active | > 80% | inactive | inactive | Unstable | > 80% | Cc1sc2c(c1C)C(c1ccc(Cl)cc1)=N[C@@H](CC(=O)NCCCNC(=O)OCc1cc(OCCCNc3cccc4c3C(=O)N(C3CCC(=O)NC3=O)C4=O)ccc1[N+](=O)[O-])c1nnc(C)n1-2 (some centres undefined)
– | inactive | Active | > 80% | inactive | inactive | – | – | Cc1sc2c(c1C)C(c1ccc(Cl)cc1)=N[C@@H](CC(=O)NCCCNC(=O)OCc1cc(OCCCNC(=O)CNc3cccc4c3C(=O)N(C3CCC(=O)NC3=O)C4=O)ccc1[N+](=O)[O-])c1nnc(C)n1-2 (some centres undefined)
